Source: US8623853B2, “Treatment of cancers characterized by chromosomal rearrangement of the NUT gene” (The Brigham and Women's Hospital, Inc., priority 2008, dated 2014)

Tests used:
NMC cells = assay: TSA dose- and time-ranging studies in cultured NMC cells (immunofluorescence, bright-field microscopy, keratin immunohistochemistry); format: cell-based
Description: Studies aimed at testing the hypothesis of HDAC inhibitor therapy in NMC have been conducted using trichostatin A (TSA), and vorinostat (SAHA, Zolinza®). Both of these compounds are regarded as non-selective for class I and II deacetylases and bind HDAC proteins by chelating the active site zinc atom with a hydroxamic acid feature. NMC cells cultured in vitro were treated with TSA in dose- and time-ranging studies. […] With further drug exposure, a differentiation phenotype was observed by bright-field microscopy and by immunohistochemistry for the epithelial differentiation-associated protein, keratin.

NMC (TC797) cells = assay: High-content 384-well assay of proliferation, histone acetylation and keratin expression adapted to NMC culture; format: cell-based
Description: A cell based approach was developed for identifying potent and selective HDAC inhibitors. Nuclear acetylation correlates with inhibition of class I deacetylases such as HDAC1 and HDAC2. An automated epiflourescent assay was therefore developed which is measures histone hyperacetylation. Cells were seeded in 384-well plate format (500 cells/well) and treated with compound. They were then fixed and stained with: a) Hoechst (nuclei); b) primary anti-AcHistone polyclonal Ab; c) anti-Keratin monoclonal antibody; and d) compatible flurophore-conjugated secondary antibodies. After automated image acquisition, a custom analysis program was applied that identifies and masks cells based on nuclear intensity (Hoechst) and then derives quantitative fluorescent data from the FITC (AcHistone) image. Subsequent secondary masks were generated using cytosolic intensity.
We have performed studies of HDAC inhibitor effects on NMC cells in culture using an adaptation of the assay described above. […] In a first attempt at multiplexed detection and quantification of effects on cell proliferation, histone acetylation, and keratin protein expression, we have witnessed clear, dose-response activity of SAHA in the pharmacologically achievable range (Cmax approximately 2 μM).

NMC cell lines = assay: SAHA treatment of five NMC cell lines; format: cell-based; conditions: pharmacologic doses
[1] = pharmacologically achievable range; cited from earlier work

SMILES	differentiation by brightfield microscopy (NMC cells; TSA 25 nM, within 24 hours)	distribution of BRD-NUT and acetylation marks (NMC cells; immunofluorescence microscopy)	histone acetylation (NMC cells; immunofluorescence microscopy, dose- and time-ranging)	cytoplasmic keratin staining (NMC cells; immunohistochemistry)	histone acetylation (NMC (TC797) cells; dose-ranging, qualitative in images)	cell proliferation (NMC (TC797) cells; multiplexed detection)	keratin protein content (NMC (TC797) cells; multiplexed detection)	differentiation (NMC cell lines)	growth (NMC cell lines)	Cmax [1] [nM]
CC(/C=C/C(=O)NO)=C\[C@@H](C)C(=O)c1ccc(N(C)C)cc1 [TSA, trichostatin A]	rapidly differentiate	redistribution of both BRD-NUT and acetylation marks from nuclear speckles to a diffuse pattern	increase in histone acetylation with increasing dose and time of exposure	increases in cytoplasmic keratin staining	–	–	–	–	–	–
O=C(CCCCCCC(=O)Nc1ccccc1)NO [SAHA, suberoylanilide hydroxamic acid]	–	–	–	–	increased histone acetylation	reduction in cell proliferation	induction of increased keratin protein content	resulted in differentiation	arrested growth	~2000
